Reference: ChEMBL document CHEMBL5465560, “Selectivity Literature for EUbOPEN Chemogenomic Library” (2024)

What was measured:
[1] = system: T1, Receptor-type tyrosine-protein kinase FLT3 (Homo sapiens), P36888 [R834Q]; settings: at 10 µM
T1 sequence (whole entry): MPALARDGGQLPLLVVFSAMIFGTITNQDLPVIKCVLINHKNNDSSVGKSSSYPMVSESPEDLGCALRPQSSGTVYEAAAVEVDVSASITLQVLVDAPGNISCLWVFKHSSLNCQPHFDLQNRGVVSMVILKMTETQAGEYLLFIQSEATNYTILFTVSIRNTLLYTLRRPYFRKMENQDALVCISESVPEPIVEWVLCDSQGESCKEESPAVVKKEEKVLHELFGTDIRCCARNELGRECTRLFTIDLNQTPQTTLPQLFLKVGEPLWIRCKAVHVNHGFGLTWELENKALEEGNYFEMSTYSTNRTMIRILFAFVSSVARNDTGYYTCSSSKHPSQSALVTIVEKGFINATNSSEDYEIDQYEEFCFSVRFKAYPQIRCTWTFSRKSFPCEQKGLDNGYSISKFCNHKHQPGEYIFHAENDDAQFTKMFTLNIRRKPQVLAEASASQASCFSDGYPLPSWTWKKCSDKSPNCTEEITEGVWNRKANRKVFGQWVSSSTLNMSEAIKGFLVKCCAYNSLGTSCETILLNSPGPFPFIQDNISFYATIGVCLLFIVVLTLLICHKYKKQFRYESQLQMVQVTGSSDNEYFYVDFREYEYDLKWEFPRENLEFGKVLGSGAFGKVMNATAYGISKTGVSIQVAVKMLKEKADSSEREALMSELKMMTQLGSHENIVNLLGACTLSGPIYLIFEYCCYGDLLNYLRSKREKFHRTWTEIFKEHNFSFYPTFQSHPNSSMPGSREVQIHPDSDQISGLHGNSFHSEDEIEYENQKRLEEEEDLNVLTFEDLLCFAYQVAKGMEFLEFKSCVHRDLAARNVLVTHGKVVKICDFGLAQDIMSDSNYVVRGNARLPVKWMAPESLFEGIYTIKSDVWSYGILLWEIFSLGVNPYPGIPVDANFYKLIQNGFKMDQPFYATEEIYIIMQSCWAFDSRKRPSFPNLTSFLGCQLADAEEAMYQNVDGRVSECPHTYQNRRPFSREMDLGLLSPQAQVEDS

[2] = biological target: Death-associated protein kinase 2 (Homo sapiens) (UniProt Q9UIK4); experiment: Selectivity interaction (Ambit KINOMEscan and KiNATiv profiling in Jurkat cells) EUB0000090b DAPK2; format: cell-based; settings: at 1 µM
[3] = biological target: Serine/threonine-protein kinase pim-1 (Homo sapiens, UniProt P11309); settings: at 10 µM
Activated CDC42 kinase 1 = Activated CDC42 kinase 1 (Homo sapiens, UniProt Q07912); experiment: Selectivity interaction (KinomeScan (DiscoverX)) EUB0001619a TNK2; settings: at 1 µM
[4] = biological target: T2, Phosphatidylinositol 3-kinase C2 domain-containing subunit gamma (Homo sapiens) (UniProt O75747); experiment: Selectivity interaction (KinomeScan (DiscoverX)) EUB0000666a PIK3C2G; settings: at 10 µM
T2 sequence (whole entry): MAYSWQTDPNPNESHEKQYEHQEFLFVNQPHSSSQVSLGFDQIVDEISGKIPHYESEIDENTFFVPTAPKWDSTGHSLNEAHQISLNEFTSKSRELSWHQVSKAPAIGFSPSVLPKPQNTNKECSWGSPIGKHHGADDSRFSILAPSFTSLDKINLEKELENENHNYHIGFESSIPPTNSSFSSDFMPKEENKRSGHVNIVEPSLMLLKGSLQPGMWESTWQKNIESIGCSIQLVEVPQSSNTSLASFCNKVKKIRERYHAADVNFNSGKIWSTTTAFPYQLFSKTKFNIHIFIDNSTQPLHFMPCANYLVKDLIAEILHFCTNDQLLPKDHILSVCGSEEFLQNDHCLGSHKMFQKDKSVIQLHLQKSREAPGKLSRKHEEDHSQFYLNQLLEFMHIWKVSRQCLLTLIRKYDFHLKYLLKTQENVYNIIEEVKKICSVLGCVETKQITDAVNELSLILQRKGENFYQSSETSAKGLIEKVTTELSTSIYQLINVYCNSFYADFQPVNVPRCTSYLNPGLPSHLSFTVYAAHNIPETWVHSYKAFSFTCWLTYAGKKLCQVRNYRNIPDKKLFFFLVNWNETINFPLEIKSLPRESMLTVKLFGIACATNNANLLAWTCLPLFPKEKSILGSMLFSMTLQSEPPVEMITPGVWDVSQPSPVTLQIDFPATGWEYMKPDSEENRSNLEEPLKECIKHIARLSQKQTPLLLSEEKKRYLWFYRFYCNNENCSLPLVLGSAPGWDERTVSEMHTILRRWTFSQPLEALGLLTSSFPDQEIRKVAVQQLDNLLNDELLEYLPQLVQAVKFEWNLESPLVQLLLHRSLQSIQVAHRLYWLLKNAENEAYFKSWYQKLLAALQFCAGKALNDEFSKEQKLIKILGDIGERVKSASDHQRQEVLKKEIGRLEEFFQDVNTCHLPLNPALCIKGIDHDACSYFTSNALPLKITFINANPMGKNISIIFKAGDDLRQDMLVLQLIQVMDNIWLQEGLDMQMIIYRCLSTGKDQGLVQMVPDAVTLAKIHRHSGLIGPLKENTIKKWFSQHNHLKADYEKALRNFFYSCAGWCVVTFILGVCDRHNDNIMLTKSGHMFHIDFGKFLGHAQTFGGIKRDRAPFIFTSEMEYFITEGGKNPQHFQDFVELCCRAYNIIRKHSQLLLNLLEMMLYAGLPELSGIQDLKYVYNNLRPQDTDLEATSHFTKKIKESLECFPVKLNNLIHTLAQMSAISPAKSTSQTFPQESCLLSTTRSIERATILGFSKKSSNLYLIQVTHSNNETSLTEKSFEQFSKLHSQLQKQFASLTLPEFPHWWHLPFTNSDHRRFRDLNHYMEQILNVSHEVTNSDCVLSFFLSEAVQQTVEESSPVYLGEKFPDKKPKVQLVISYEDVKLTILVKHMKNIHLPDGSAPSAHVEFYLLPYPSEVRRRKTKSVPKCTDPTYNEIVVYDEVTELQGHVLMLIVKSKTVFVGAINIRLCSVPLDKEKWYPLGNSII

Chain of Serine/threonine-protein kinase pim-1 (P11309 whole entry, looked up): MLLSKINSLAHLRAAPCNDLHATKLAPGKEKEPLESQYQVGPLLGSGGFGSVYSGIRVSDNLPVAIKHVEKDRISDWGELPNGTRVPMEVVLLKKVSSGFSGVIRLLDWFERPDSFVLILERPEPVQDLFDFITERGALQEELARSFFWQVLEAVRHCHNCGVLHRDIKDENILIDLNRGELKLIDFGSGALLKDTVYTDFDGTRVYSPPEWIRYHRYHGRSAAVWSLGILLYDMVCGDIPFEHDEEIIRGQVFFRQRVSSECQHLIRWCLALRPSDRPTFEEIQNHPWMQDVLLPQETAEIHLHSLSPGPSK
Chain of Death-associated protein kinase 2 (Homo sapiens) (Q9UIK4 whole entry, looked up): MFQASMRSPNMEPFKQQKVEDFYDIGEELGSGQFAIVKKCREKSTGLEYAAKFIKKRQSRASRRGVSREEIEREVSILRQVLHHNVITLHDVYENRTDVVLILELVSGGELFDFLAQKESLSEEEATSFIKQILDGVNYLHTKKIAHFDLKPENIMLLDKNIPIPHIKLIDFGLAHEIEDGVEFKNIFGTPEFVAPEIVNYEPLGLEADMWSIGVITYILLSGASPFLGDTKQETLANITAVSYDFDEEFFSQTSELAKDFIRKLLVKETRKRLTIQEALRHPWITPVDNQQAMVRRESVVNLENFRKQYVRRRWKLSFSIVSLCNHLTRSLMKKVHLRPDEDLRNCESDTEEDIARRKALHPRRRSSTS
Chain of Activated CDC42 kinase 1 (Q07912 whole entry, looked up, the tested form may be a part): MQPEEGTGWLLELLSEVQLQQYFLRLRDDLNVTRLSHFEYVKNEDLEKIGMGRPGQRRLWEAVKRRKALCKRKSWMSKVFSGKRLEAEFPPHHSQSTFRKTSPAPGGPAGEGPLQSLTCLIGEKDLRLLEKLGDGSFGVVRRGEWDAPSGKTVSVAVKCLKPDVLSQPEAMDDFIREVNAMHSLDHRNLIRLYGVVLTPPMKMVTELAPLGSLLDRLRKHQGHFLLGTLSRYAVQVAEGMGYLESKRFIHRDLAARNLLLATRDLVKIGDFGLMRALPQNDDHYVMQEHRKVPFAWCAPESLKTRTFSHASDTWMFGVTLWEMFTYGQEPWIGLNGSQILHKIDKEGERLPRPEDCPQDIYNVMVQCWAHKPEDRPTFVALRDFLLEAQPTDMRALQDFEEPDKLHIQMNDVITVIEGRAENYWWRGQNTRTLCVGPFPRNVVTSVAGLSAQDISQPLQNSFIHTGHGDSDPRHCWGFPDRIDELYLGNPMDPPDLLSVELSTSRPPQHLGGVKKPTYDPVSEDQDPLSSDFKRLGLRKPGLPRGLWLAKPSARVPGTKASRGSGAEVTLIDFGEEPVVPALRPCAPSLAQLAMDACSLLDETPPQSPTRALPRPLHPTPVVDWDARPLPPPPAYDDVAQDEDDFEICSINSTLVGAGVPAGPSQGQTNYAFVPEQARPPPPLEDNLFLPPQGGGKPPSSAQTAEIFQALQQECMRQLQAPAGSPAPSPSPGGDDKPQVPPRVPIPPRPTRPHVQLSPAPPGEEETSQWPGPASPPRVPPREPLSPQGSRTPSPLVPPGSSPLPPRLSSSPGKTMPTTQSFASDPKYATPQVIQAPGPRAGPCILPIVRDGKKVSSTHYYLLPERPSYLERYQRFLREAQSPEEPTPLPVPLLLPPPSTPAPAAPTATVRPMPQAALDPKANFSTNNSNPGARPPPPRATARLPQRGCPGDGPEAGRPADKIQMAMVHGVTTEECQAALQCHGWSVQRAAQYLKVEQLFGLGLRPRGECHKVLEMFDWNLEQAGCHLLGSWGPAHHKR

`Cc1cc([C@@H](C)Nc2ccccc2C(=O)O)c2nc(N3CCOCC3)cc(=O)n2c1` [AZD-6482] was tested, and the % of control [1] was 94%.
Molecule `CN(C)C/C=C/C(=O)Nc1ccc(C(=O)N2CCCC(Nc3ncc(Cl)c(-c4c[nH]c5ccccc45)n3)C2)cc1` (stereo not given) has a % of control [2] of 98%.
`COCC(=O)NC/C=C/c1ccc2ncnc(Nc3ccc(Oc4ccc(C)nc4)c(C)c3)c2c1` [CP-724714] showed a % of control [3] of 100%.
In the case of `N#Cc1cccc(-c2c[nH]c3ncnc(N4CCOCC4)c23)c1`, the % of control (Activated CDC42 kinase 1) is reported as 98%.
`O=C(NOC[C@H](O)CO)c1ccc(F)c(F)c1Nc1ccc(I)cc1F` gave a % of control [4] of 48%.
